Source: patent publication US20250179051A1, “PYRIMIDINLY-OXY-QUINOLINE BASED HERBICIDAL COMPOUNDS” (SYNGENTA CROP PROTECTION AG, priority 2022, published 2025)

What was measured:
Type in all cases: in vivo
Settings in all cases: 250 g/ha, evaluated after 13 days, five-point scale
[1] = tested on: Ipomoea hederacea (IPOHE); test: Pre-emergence herbicide glasshouse test
Method: (§1) Seeds of a variety of test species are sown in standard soil in pots Amaranthus retoflexus (AMARE), Amaranthus palmeri (AMAPA), Echinochloa crus-galli (ECHCG), Ipomoea hederacea (IPOHE), Setaria faberi (SETFA). After cultivation for one day (pre-emergence) or after 8 days cultivation (post-emergence) under controlled conditions in a glasshouse (at 24/16° C., day/night; 14 hours light; 65% humidity), the plants are sprayed with an aqueous spray solution derived from the formulation of the technical active ingredient in acetone/water (50:50) solution containing 0.5% Tween 20 (polyoxyethelyene sorbitan monolaurate, CAS RN 9005-64-5). Compounds are applied at 250 g/ha unless otherwise stated. The test plants are then grown in a glasshouse under controlled conditions in a glasshouse (at 24/16° C., day/night; 14 hours light; 65% humidity) and watered twice daily. After 13 days for pre and post-emergence, the test is evaluated for the percentage damage caused to the plant. The biological activities are shown in the following table on a five-point scale (5=81-100%; 4=61-80%; 3=41-60%; 2=21-40%; 1=0-20%).

[2] = tested on: Amaranthus palmeri (AMAPA); test: Pre-emergence herbicide glasshouse test
Method: as §1

Setaria faberi (SETFA) [3] = test: Pre-emergence herbicide glasshouse test
Method: as §1

[4] = tested on: Amaranthus retoflexus (AMARE); test: Pre-emergence herbicide glasshouse test
Method: as §1

[5] = tested on: Echinochloa crus-galli (ECHCG); test: Pre-emergence herbicide glasshouse test
Method: as §1

[6] = tested on: Ipomoea hederacea (IPOHE); test: Post-emergence herbicide glasshouse test
Method: as §1

[7] = tested on: Amaranthus palmeri (AMAPA); test: Post-emergence herbicide glasshouse test
Method: as §1

Setaria faberi (SETFA) [8] = test: Post-emergence herbicide glasshouse test
Method: as §1

[9] = tested on: Amaranthus retoflexus (AMARE); test: Post-emergence herbicide glasshouse test
Method: as §1

[10] = tested on: Echinochloa crus-galli (ECHCG); test: Post-emergence herbicide glasshouse test
Method: as §1

| Structure (SMILES) | percentage damage caused to the plant, IPOHE [1] | percentage damage caused to the plant, AMAPA [2] | percentage damage caused to the plant, SETFA (Setaria faberi (SETFA) [3]) | percentage damage caused to the plant, AMARE [4] | percentage damage caused to the plant, ECHCG [5] | percentage damage caused to the plant, IPOHE [6] | percentage damage caused to the plant, AMAPA [7] | percentage damage caused to the plant, SETFA (Setaria faberi (SETFA) [8]) | percentage damage caused to the plant, AMARE [9] | percentage damage caused to the plant, ECHCG [10] |
| --- | --- | --- | --- | --- | --- | --- | --- | --- | --- | --- |
| CCO/N=C/CCc1nc(C(F)(F)F)nc2cccc(Oc3ncc(Cl)cn3)c12 [Compound 1.009] | 1 (1=0-20%) | 5 (5=81-100%) | 5 (5=81-100%) | 5 (5=81-100%) | 5 (5=81-100%) | 5 (5=81-100%) | 5 (5=81-100%) | 5 (5=81-100%) | 5 (5=81-100%) | 5 (5=81-100%) |
| CN(C)/C=C/c1nc(C(F)(F)F)nc2cccc(Oc3ncc(Cl)cn3)c12 [Compound 1.010, 2-[5-(5-chloropyrimidin-2-yl)oxy-2-(trifluoromethyl)quinazolin-4-yl]-N,N-dimethyl-ethenamine] | 1 (1=0-20%) | 2 (2=21-40%) | 1 (1=0-20%) | 2 (2=21-40%) | 1 (1=0-20%) | 1 (1=0-20%) | 3 (3=41-60%) | 1 (1=0-20%) | 3 (3=41-60%) | 1 (1=0-20%) |
| C=CCON=CCCc1nc(C(F)(F)F)nc2cccc(Oc3ncc(Cl)cn3)c12 [Compound 1.011] | 2 (2=21-40%) | 5 (5=81-100%) | 5 (5=81-100%) | 5 (5=81-100%) | 4 (4=61-80%) | 2 (2=21-40%) | 4 (4=61-80%) | 4 (4=61-80%) | 5 (5=81-100%) | 4 (4=61-80%) |
| CCNC(=O)CCc1nc(C(F)(F)F)nc2cccc(Oc3ncc(Cl)cn3)c12 [Compound 1.012, 3-[5-(5-chloropyrimidin-2-yl)oxy-2-(trifluoromethyl)quinazolin-4-yl]-N-ethyl-propanamide] | 1 (1=0-20%) | 2 (2=21-40%) | 1 (1=0-20%) | 1 (1=0-20%) | 1 (1=0-20%) | 1 (1=0-20%) | 3 (3=41-60%) | 1 (1=0-20%) | 2 (2=21-40%) | 1 (1=0-20%) |
| FC(F)(F)c1ncc(-c2nc(C(F)(F)F)nc3cccc(Oc4ncc(Cl)cn4)c23)cn1 [Compound 1.013, 5-(5-chloropyrimidin-2-yl)oxy-2-(trifluoromethyl)-4-[2-(trifluoromethyl)pyrimidin-5-yl]quinazoline] | 1 (1=0-20%) | 1 (1=0-20%) | 1 (1=0-20%) | 1 (1=0-20%) | 1 (1=0-20%) | 1 (1=0-20%) | 2 (2=21-40%) | 1 (1=0-20%) | 2 (2=21-40%) | 1 (1=0-20%) |
| Cc1ncc(-c2nc(C(F)(F)F)nc3cccc(Oc4ncc(Cl)cn4)c23)cn1 [Compound 1.014] | 1 (1=0-20%) | 2 (2=21-40%) | 1 (1=0-20%) | 2 (2=21-40%) | 1 (1=0-20%) | 1 (1=0-20%) | 1 (1=0-20%) | 1 (1=0-20%) | 1 (1=0-20%) | 1 (1=0-20%) |
| Cc1cnc(Oc2cccc3nc(C(F)(F)F)nc(CCC4CC4)c23)nc1 [Compound 1.015, 4-(2-cyclopropylethyl)-5-(5-methylpyrimidin-2-yl)oxy-2-(trifluoromethyl)quinazoline] | 3 (3=41-60%) | 5 (5=81-100%) | 5 (5=81-100%) | 5 (5=81-100%) | 5 (5=81-100%) | 3 (3=41-60%) | 2 (2=21-40%) | 5 (5=81-100%) | 4 (4=61-80%) | 4 (4=61-80%) |
| Cn1nc(-c2nc(C(F)(F)F)nc3cccc(Oc4ncc(Cl)cn4)c23)cc1C(F)F [Compound 1.016, 5-(5-chloropyrimidin-2-yl)oxy-4-[5-(difluoromethyl)-1-methyl-pyrazol-3-yl]-2-(trifluoromethyl)quinazoline] | 1 (1=0-20%) | 2 (2=21-40%) | 1 (1=0-20%) | 1 (1=0-20%) | 1 (1=0-20%) | 2 (2=21-40%) | 2 (2=21-40%) | 1 (1=0-20%) | 2 (2=21-40%) | 1 (1=0-20%) |
| CC(=NOCC(F)(F)F)c1nc(C(F)(F)F)nc2cccc(Oc3ncc(Cl)cn3)c12 [Compound 1.018, 1-[5-(5-chloropyrimidin-2-yl)oxy-2-(trifluoromethyl)quinazolin-4-yl]-N-(2,2,2-trifluoroethoxy) ethanimine] | 1 (1=0-20%) | 1 (1=0-20%) | 1 (1=0-20%) | 1 (1=0-20%) | 1 (1=0-20%) | 2 (2=21-40%) | 2 (2=21-40%) | 1 (1=0-20%) | 2 (2=21-40%) | 1 (1=0-20%) |
| FC(F)(F)c1nc(CCCC2CC2)c2c(Oc3ncc(Cl)cn3)cccc2n1 [Compound 1.019] | 1 (1=0-20%) | 5 (5=81-100%) | 5 (5=81-100%) | 4 (4=61-80%) | 4 (4=61-80%) | 3 (3=41-60%) | 5 (5=81-100%) | 5 (5=81-100%) | 5 (5=81-100%) | 2 (2=21-40%) |
